Measured values: patent US20240208895A1, “BRANCHED-CHAIN AMINO ACID DERIVATIVES TO TREAT DISEASE” (INTRABIO LTD., priority 2021, published 2024)
Read-outs that look alike come from different tables or passages of the source. One block for each molecule: values may come before it.

What was measured:
LAT1 = biological target: T1, LAT1 (Homo sapiens, UniProt Q01650); assay: LAT1 transporter-mediated cellular uptake (substrate test); assay type: cell-based; conditions: uptake 3 min, 37° C.
T1 construct: expressed in transfected cells
Method: DMSO (0.5%) was the solvent control (SC) and the known inhibitor for the positive control (PC) was JPH203 (10 μM). Data were fit to either the Michaelis-Menten equation for uptake or the Hill equation for inhibition using the solvent control to define the top and the positive control inhibitor to define the bottom. Symbols represent the mean±SEM, n=3.
Human OAT1 (SLC22A6) and OAT3 (SLC22A8) overexpressing HEK-293 cells and control cells without transfected transporter (Corning® TransportoCells™) are plated to 24-well plates and cellular uptake of 10 to 100 μg/mL of a Compound of the Disclosure is measured in the absence and presence of transporter inhibitors. Uptake of a Compound of the Disclosure into control cells is measured only without chemical inhibitors. […] Cells are grown in DMEM (Gibco 4196, high glucose, without sodium pyruvate) supplemented with MEM non-essential amino acids and 10% fetal bovine serum. Cells are re-fed with fresh medium after attachment (4-6 hours post-seeding). Cell are plated at a density of 4×10^5/well in 24-well plates coated with poly-D-lysine. Transporter assays are conducted in 400 μL of HBSS supplemented with 10 mM Hepes, pH 7.4
The known probe substrates used as positive controls are 3 μM chlorothiazide for OAT1, 2 μM estrone-3-sulfate for OAT3, 10 μM gabapentin for LAT1, 50 μM Gly-Sar for PepT1, 500 μM thiophene-2-glyoxylic acid for MCT1. […]

human transporter MCT1 = biological target: T2, human transporter MCT1 (Homo sapiens, UniProt P53985); assay: Human MCT1-mediated transport in MDCK-II cells (Example 9); assay type: cell-based; conditions: MDCK-II cells expressing human MCT1, pH 5.5, 1 minute, normalized to Vmax of thiophene-2-glyoxylic acid
T2 construct: expressed in transfected cells; host or cells: MDCK-II
T2 sequence (P53985 1-500): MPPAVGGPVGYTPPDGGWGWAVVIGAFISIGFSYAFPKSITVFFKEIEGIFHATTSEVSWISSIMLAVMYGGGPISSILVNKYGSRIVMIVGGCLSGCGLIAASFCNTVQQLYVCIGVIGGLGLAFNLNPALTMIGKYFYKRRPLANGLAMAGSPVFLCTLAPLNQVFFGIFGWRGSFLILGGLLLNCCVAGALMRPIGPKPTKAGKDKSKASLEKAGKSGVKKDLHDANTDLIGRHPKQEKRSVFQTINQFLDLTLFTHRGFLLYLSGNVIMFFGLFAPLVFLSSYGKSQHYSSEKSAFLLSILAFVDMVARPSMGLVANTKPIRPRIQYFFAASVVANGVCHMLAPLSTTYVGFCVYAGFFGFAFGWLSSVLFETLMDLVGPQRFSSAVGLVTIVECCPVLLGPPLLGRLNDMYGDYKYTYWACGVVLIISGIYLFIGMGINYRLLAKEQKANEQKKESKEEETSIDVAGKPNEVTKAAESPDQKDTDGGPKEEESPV
Method: Representative Compounds of the Disclosure are tested in (i) MDCK-II cells expressing human transporter MCT1; and (ii) MDCK-II cells transfected with a control vector (GFP) as control cells for human transporter MCT1. 2-Thiophene-glyoxylic acid (TPGA) is the positive control for transport.
• 1. A stock solution is prepared with the test article (Compound of the Disclosure) in DMSO or in HBSS-Bis-Tris. • 2. Final assay solutions of probe substrate or test article contain 0.5% (v/v) DMSO (vehicle control). • 3. Test article concentrations are 10 μM, 30 μM, 100 μM, 300 μM, 1000 μM, 3000 μM, and 10000 μM.
MDCK-II cells are maintained in DMEM with low glucose and 10% FBS. Cells passages up to 40 are seeded at 60K±10K cells/well on 96-well, transwell membrane plates approximately 24 hours before transfection. Transport assays are carried out approximately 48 hours after transfection.
• 1. Test system: • a. Test system: 96-well cell culture plate with wells containing a monolayer of MDCK-II cells grown on a permeable support and a corresponding 96-well receiver tray. Cell plates are maintained at 37° C. in 5% CO2 atmosphere prior to initiation of the transport experiment. • b. Pre-incubation is conducted in HBSS, pH 7.4. Transport experiments are conducted in HBSS with Bis-Tris, pH 5.5, without phenol red. Pre-incubation and incubation are conducted at ambient temperatures. • c. Each condition is run in triplicate wells. • d. […] The result from the control cells is used to correct for substrate permeation by routes other than the transporter being investigated in the study. • 2. Prepare the 96-well plate as follows: • a. Wash the basal side of the culture plate insert with HBSS three times. After the final wash, blot the basal side of the wells and keep this side dry. • b. Wash the culture plate wells with HBSS three times. The wells of the culture plate serve as the apical compartment. • 3. Aspirate the final wash from the culture plate. The wells of the culture plate serve as the apical compartment. Add 100 μL of HBSS pH 7.4 pre-incubation buffer containing vehicle to the apical compartments. • 4. Incubate the plates with orbital shaking at approximately 60 RPM for the pre-incubation time specified in Table 1 of this protocol. • 5. Aspirate the pre-incubation buffer from the apical compartment of the plates. Add 100 μL of the experimental buffer that is prepared as follows and maintained at ambient temperatures. • a. For the probe substrate transport assay, the HBSS with Bis-Tris, pH 5.5 in each well contains the probe substrate at 500 μM (positive control for transport) and vehicle control. • b. For the test article assays, the HBSS with Bis-Tris, pH 5.5 in each well contains the test article at 10 μM, 30 μM, 100 μM, 300 μM, 1000 μM, 3000 μM, and 10000 μM. • 6. Incubate at ambient temperature with orbital shaking at approximately 60 RPM for the incubation time of 1 minute. • 7. […]
• 1. The amount of radiolabeled probe substrate will be quantified with radiometric detection on a 1450 Microbeta (Perkin-Elmer). • 2. The amount of non-radiolabeled probe substrate or test article will be quantified by LC-MS/MS. • 3. […] For uptake assays, the net transporter-mediated uptake rate (V) of the substrate by each SLC transporter will be calculated as follows:
[formula] • 5. For transport kinetics assessment, Km and Vmax will be calculated by non-linear regression using the Michaelis-Menten equation. • 6. […]

[1] = biological target: T3, monocarboxylate transporter (MCT1) (Homo sapiens, UniProt P53985); assay: Inhibition of MCT1 uptake of known substrate 2-thiophene glyoxylate; assay type: cell-based; parameters: expressed in transfected cells
T3 sequence (P53985 1-500): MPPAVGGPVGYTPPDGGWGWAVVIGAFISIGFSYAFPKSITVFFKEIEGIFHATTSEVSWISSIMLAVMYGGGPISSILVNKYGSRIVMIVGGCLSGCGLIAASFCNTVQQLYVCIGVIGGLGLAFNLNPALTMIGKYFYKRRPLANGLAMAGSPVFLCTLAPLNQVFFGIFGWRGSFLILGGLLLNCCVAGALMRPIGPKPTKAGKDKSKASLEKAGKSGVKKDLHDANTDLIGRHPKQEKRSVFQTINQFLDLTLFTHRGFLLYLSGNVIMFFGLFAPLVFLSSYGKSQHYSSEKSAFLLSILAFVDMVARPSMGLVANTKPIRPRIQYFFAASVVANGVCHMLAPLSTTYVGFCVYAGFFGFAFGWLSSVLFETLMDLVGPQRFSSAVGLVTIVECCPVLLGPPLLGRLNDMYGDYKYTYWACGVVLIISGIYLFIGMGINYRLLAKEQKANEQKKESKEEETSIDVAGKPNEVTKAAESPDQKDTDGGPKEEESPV
Method: FIG. 4(c) is a line graph showing concentration-inhibition curves for the inhibition of uptake of the known substrate 2-thiophene glyoxylate (500 μM) for MCT1. DMSO (0.5%) was the solvent control (SC) and the known inhibitor phloretin (500 μM) was the positive control (PC).
FIG. 4(d) is a line graph showing concentration-inhibition curves for the inhibition of uptake of the known substrate 2-thiophene glyoxylate (500 μM) for MCT1. DMSO (0.5%) was the solvent control (SC) and the known inhibitor phloretin (500 μM) was the positive control (PC).
The known probe substrates used as positive controls are 3 μM chlorothiazide for OAT1, 2 μM estrone-3-sulfate for OAT3, 10 μM gabapentin for LAT1, 50 μM Gly-Sar for PepT1, 500 μM thiophene-2-glyoxylic acid for MCT1.
The IC50 value for the test item is determined by fitting the Hill equation in the following form:
where A % is the percent activity remaining (the mean cellular uptake observed in the solvent control sample set to 100% and the mean cellular uptake observed in the presence of the positive control inhibitor set to 0%), Top and Bottom are the upper and lower plateau of A %. [I] is the inhibitor concentration and IC50 is the inhibitor concentration where the remaining activity is at the midpoint between the Top and Bottom.

[2] = Method: (§1) A Compound of the Disclosure is incubated at 1 μM, 10 μM and 100 μM with pooled liver S9 fractions from human (mixed gender) and mouse (CD1) at 1.5 mg/mL in 300 μL buffer containing phosphate 100 mM, MgCl2 2 mM, pH 7.4 at 37° C. for 0, 10, 20, 40, 60 min.
(§2) Enzyme kinetic data for uptake and metabolism of a Compound of the Disclosure is analysed by fitting the Michaelis-Menten equation to the data. V0=Vmax[S]/Km+[S], where V0 is initial velocity, [S] is substrate concentration, Vmax is maximum velocity and Km is substrate concentration at half Vmax. All fitting is performed using GraphPad Prism 8.4 software (GraphPad Software Inc). No weighting scheme is applied.

[3] = remark: listed apart in the source
Method: as §1, §2

[4] = tested on: glycosphingolipid (GSL) biosynthesis; conditions: LSDs; cited from earlier work
[5] = substrate: CC(=O)N[C@H](CC(C)C)C(=O)O; assay: cells, lysate or membranes; conditions: other: uptake 1 min, room temperature

T1 sequence (Q01650 whole entry): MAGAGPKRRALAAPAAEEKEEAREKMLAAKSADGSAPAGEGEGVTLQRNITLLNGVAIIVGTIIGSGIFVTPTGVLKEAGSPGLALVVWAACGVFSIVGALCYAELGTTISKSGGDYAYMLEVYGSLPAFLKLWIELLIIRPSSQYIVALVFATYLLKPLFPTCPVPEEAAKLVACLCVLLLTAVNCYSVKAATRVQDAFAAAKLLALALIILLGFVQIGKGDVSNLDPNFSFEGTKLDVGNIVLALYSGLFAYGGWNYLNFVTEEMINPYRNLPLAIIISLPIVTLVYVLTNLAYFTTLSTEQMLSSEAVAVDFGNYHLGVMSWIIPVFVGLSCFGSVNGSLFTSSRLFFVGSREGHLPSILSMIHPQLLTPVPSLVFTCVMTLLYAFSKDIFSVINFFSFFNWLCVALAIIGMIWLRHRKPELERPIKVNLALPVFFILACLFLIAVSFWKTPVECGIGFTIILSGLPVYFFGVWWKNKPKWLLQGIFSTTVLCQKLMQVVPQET
T1 sequence (P08195 102-630 partner): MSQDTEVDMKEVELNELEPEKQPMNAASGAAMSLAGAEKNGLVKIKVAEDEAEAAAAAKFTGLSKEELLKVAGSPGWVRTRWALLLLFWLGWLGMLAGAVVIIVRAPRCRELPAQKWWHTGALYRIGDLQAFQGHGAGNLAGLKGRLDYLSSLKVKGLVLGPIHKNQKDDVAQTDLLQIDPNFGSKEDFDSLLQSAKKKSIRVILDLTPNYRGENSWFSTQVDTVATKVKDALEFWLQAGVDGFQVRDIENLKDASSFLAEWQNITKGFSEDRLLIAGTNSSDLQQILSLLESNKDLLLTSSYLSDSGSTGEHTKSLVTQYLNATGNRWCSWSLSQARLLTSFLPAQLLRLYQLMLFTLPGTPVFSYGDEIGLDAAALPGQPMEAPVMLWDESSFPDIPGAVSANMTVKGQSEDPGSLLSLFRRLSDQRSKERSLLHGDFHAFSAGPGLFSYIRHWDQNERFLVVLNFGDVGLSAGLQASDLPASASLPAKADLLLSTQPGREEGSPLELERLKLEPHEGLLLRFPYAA

Molecule: CC(=O)N[C@H](CC(C)C)C(=O)O [N-acetyl-D-leucine]
Ki ([1]; assuming competitive inhibition, read-out: affinity (Ki) for MCT1, Cheng-Prusoff equation): 1.6 mM | IC50 ([1]; probe substrate 2-thiophene glyoxylate 500 μM): 11 mM

Molecule: [2H]C([2H])([2H])C([2H])(C([2H])([2H])[2H])C([2H])([2H])C([2H])(NC(C)=O)C(=O)O (racemic) [N-acetyl-DL-[^2H10]leucine]
Vmax, metabolism [2]: 2.6 µmol/min/mg | disappearance, asymptote as % of the initial concentration [2]: ~50% | Vmax, metabolism [3]: 6.8 µmol/min/mg | disappearance, asymptote as % of the initial concentration [3]: ~50%

Molecule: COC(=O)[C@H](CC(C)C)NC(C)=O [N-acetyl-L-leucine methyl ester]
uptake mediated by MCT1 (human transporter MCT1): greatly reduced transport

Molecule: CCCCN1C[C@H](O)[C@@H](O)[C@H](O)[C@H]1CO [miglustat]
benefit in clinical trial of substrate reduction therapy [4]: Some benefit

B1: monocarboxylate transporter (MCT1) (Homo sapiens) (protein)
chain: MPPAVGGPVGYTPPDGGWGWAVVIGAFISIGFSYAFPKSITVFFKEIEGIFHATTSEVSWISSIMLAVMYGGGPISSILVNKYGSRIVMIVGGCLSGCGLIAASFCNTVQQLYVCIGVIGGLGLAFNLNPALTMIGKYFYKRRPLANGLAMAGSPVFLCTLAPLNQVFFGIFGWRGSFLILGGLLLNCCVAGALMRPIGPKPTKAGKDKSKASLEKAGKSGVKKDLHDANTDLIGRHPKQEKRSVFQTINQFLDLTLFTHRGFLLYLSGNVIMFFGLFAPLVFLSSYGKSQHYSSEKSAFLLSILAFVDMVARPSMGLVANTKPIRPRIQYFFAASVVANGVCHMLAPLSTTYVGFCVYAGFFGFAFGWLSSVLFETLMDLVGPQRFSSAVGLVTIVECCPVLLGPPLLGRLNDMYGDYKYTYWACGVVLIISGIYLFIGMGINYRLLAKEQKANEQKKESKEEETSIDVAGKPNEVTKAAESPDQKDTDGGPKEEESPV
Km [5]: 1000 µM

More lines, now with the values ahead:

substrate of LAT1 (uptake) (LAT1): neither a substrate
Molecule: CC(=O)N[C@@H](CC(C)C)C(=O)O [N-acetyl-leucine]

uptake mediated by MCT1 (human transporter MCT1): transported
Molecule: CCC(=O)N[C@H](C(=O)O)[C@@H](C)CC [N-propionyl-L-isoleucine]

uptake mediated by MCT1 (human transporter MCT1): greatly reduced transport
Molecule: COC(=O)[C@@H](NC(C)=O)C(C)C [N-acetyl-L-valine methyl ester]

uptake mediated by MCT1 (human transporter MCT1): transported
Molecule: CCC(=O)N[C@H](C(=O)O)C(C)C [N-propionyl-L-valine]
